Measured values: the NIST ThermoML archive (doi:10.1021/je060243s)
“And” between values parts separate entries of the source, which are not always exact repeats. Equal entries are not always repeated.

Assay: wn = mass fraction of the nth substance listed
Details: Liquid, Pulse-echo method, w2 = 0.5

FC(F)C(F)(F)F [pentafluoroethane] + FCF
speed of sound
Details	253.09 K	258.09 K	265.61 K	273.12 K	280.72 K	288.2 K
830 kPa	–	–	–	574.5 m/s	–	–
1000 kPa	–	656.5 m/s	–	–	–	–
1030 kPa	–	–	–	–	535.2 m/s	–
1060 kPa	–	–	–	–	535.5 m/s	–
1120 kPa	–	657.6 m/s	–	–	–	–
1150 kPa	–	–	–	–	536.9 m/s	–
1180 kPa	684.1 m/s	–	–	–	–	–
1190 kPa	–	–	618.9 m/s	–	–	–
1220 kPa	–	–	–	578.8 m/s	–	–
1260 kPa	684.8 m/s	658.8 m/s	–	–	538 m/s	–
1340 kPa	–	–	620 m/s	–	–	–
1350 kPa	–	–	–	–	–	496 m/s
1360 kPa	–	–	–	580.1 m/s	–	–
1380 kPa	685.8 m/s	659.7 m/s	–	–	539.4 m/s	–
1420 kPa	–	–	–	–	–	497.2 m/s
1480 kPa	–	–	–	–	–	498 m/s
1500 kPa	686.8 m/s	660.8 m/s and 661 m/s	621.6 m/s	581.6 m/s	540.9 m/s	–
1550 kPa	–	–	–	–	–	499 m/s
1620 kPa	687.7 m/s	–	–	–	–	–
1630 kPa	–	662.2 m/s	–	–	542.3 m/s	–
1750 kPa	688.8 m/s	663.1 m/s	623.8 m/s	584.2 m/s	543.8 m/s	–
2010 kPa	690.6 m/s	665.1 m/s	626.1 m/s	586.8 m/s	546.7 m/s	–
2250 kPa	692.6 m/s	667.1 m/s	628.3 m/s	589.4 m/s	549.6 m/s	–
2510 kPa	694.3 m/s	669.2 m/s	630.7 m/s	591.9 m/s	552.3 m/s	–
2750 kPa	696.4 m/s	671.4 m/s	633 m/s	594.1 m/s	555 m/s	–
3010 kPa	698.4 m/s	673.4 m/s	635.2 m/s	596.9 m/s	557.9 m/s	–
3500 kPa	702.3 m/s	677.1 m/s	639.4 m/s	601.6 m/s	563.2 m/s	–
4000 kPa	705 m/s	681.1 m/s	644 m/s	606.4 m/s	568.5 m/s	–
4500 kPa	709.5 m/s	685.3 m/s	648.1 m/s	611 m/s	573.7 m/s	–
5000 kPa	713.3 m/s	689.1 m/s	652.1 m/s	615.4 m/s	579 m/s	–
6010 kPa	720.6 m/s	696.6 m/s	660.6 m/s	624.4 m/s	588.6 m/s	–
7010 kPa	727.4 m/s	703.9 m/s	668.4 m/s	633.3 m/s	598.3 m/s	–
8000 kPa	734.2 m/s	711 m/s	676.1 m/s	641.5 m/s	607.1 m/s	–
9000 kPa	740.8 m/s	718.1 m/s	683.8 m/s	649.3 m/s	615.9 m/s	–
10000 kPa	747.5 m/s	724.8 m/s	691 m/s	657.6 m/s	624.5 m/s	–
12000 kPa	760.2 m/s	738.2 m/s	705.2 m/s	672.7 m/s	640.6 m/s	–
14000 kPa	772.5 m/s	751.2 m/s	718.9 m/s	687.3 m/s	656.1 m/s	–
16010 kPa	784.5 m/s	763.4 m/s	732.1 m/s	701.1 m/s	670.9 m/s	–
18000 kPa	795.3 m/s	775 m/s	744.4 m/s	714.5 m/s	684.9 m/s	–
20000 kPa	806.9 m/s	786.7 m/s	756.2 m/s	727 m/s	698.3 m/s	–
23000 kPa	822.9 m/s	803.2 m/s	773.6 m/s	745.4 m/s	717 m/s	–
26000 kPa	837.9 m/s	818.7 m/s	790.1 m/s	762.7 m/s	735.5 m/s	–
29010 kPa	852.8 m/s	833.7 m/s	806.2 m/s	779 m/s	752.6 m/s	–
32000 kPa	867.2 m/s	848.7 m/s	821.5 m/s	794.8 m/s	769.2 m/s	–
35000 kPa	880.5 m/s	862.6 m/s	835.5 m/s	809.6 m/s	785.1 m/s	–
40000 kPa	902.6 m/s	885 m/s	858.8 m/s	833.5 m/s	809.7 m/s	–
45000 kPa	923.6 m/s	906.3 m/s	880.8 m/s	856.4 m/s	833.1 m/s	–
50000 kPa	943.8 m/s	926.7 m/s	902 m/s	877.8 m/s	855.3 m/s	–
55000 kPa	962.8 m/s	946.6 m/s	922.4 m/s	898.7 m/s	876.4 m/s	–
60000 kPa	981.2 m/s	965.6 m/s	941.6 m/s	919 m/s	898.9 m/s	–
65000 kPa	999.5 m/s	983.3 m/s	959.9 m/s	938 m/s	916.7 m/s	–

Details	speed of sound [m/s]
273.12 K	574.5
280.72 K	535.2
